Test results as given in US5002942A, “1,5-benzothiazepine derivatives, their preparation and their use in the treatment of cardiovascular disorders” (Sankyo Company, Limited, priority 1988, dated 1991).

Legend:
calcium channel = target: T1, calcium channel (Cavia porcellus, UniProt O35505); experiment: Calcium channel blocking action (calcium-induced contraction of excised taenia coli); details: 0.5 h, test compound 10^-8 g/ml, 30 minutes incubation, guinea pig taenia coli, hydrochlorides (Example 34: fumarate)
T1 construct: The taenia coli excised from a male guinea pig; from tissue; host or cells: guinea pig taenia coli (excised smooth muscle strip)
Method: The taenia coli excised from a male guinea pig weighing from 250 to 300 g was cut into a length of 6 to 7 mm and suspended in an organ bath filled with Tylord's solution (sodium chloride 97 mM, potassium chloride 40 mM, sodium hydrogen carbonate 11.9 mM, disodium hydrogen phosphate 0.4 mM, glucose 5.5 mM; pH 7.1). The bath solution contained no calcium ions and was aerated with a mixture of 95% oxygen and 5% carbon dioxide by volume. To this solution were added 10 and 30 mM solutions of calcium chloride at 30 minute intervals to obtain a final concentration of 0.4 mM. The tension which developed 1n the taenia coli was measured by an isometric transducer. The organ bath was then washed twice or more with Tylord's solution containing no calcium ions after which it was allowed to equilibrate for 30 minutes. After the muscle had stabilised, test compound dissolved in physiological saline was added to the bath to a final concentration of 10^-8 g/ml, and the bath was incubated for 30 minutes. 30 and 100 mM solutions of calcium chloride were again added to the bath, and the developed tension was measured. From the magnitude of the calcium-induced contraction before and after the test drug had been added the inhibitory rate was calculated using the following formula: [formula] where: Co=contraction induced by calcium ion before a test drug was added: and
Ct=contraction induced by calcium ion after the test drug had been added.
In addition to the compounds of the invention, we also carried out the same test with the following compounds of the prior art: (±)-diltiazem, […], (±)-8-chlorodiltiazem (8-Cl-diltiazem). (±)-8-methoxydiltiazem (8-MeO-diltiazem) and (±)-8-benzyloxydiltiazem (8-BzO-diltiazem).
In the Table, the compounds of the invention are identified by the number of the one of the foregoing Examples in which the compound was prepared. The prior art compounds are identified by the abbreviated generic names shown above in parentheses.
All of the compounds except for that of Example 34 were employed as the hydrochlorides; that of Example 34 was employed as the fumarate.

[1] = test system: SHR (spontaneously hypertensive rats); experiment: Antihypertensive action in SHR; type: in vivo; details: conscious male SHR, hydrochlorides, 24 hours
Method: Male SHR (spontaneously hypertensive rats), 23 to 30 weeks old, were anesthesized with sodium pentobarbital 50 mg/kg intraperitoneal administration), and a polyethylene cannula was inserted through the left femoral artery into the abdominal aorta. The other end of the cannula was led out of the body and fixed at the back of the neck. One week after the operation, when the animal had recovered from the stress of the surgery, the other end of the cannula was connected to a blood pressure measuring device, which was constructed according to the directions of Laffan et al. [Laffan, P.J., Peterson A., Hitch S,W. and Jeunelot C., Cardiovascular Res. 6. 319-324 (1972)], but with slight modifications. The blood pressure and heart rate of the conscious and […] SHR were measured. After the blood pressure and the heart rate had stabilised for more than one hour, the test drug was administered by […]. After administration of the test sample, the blood pressure and the heart rate were measured every 15 minutes over a period of 24 hours. The maximum decrease in blood pressure and the half-time of the blood pressure lowering activity thus determined are shown in Table 6.
All of the test compounds were employed as the hydrochlorides.

[2] = Rattus norvegicus, po, Dose 30 mg/kg, read-out: Maximum hypotension (%)
[3] = Rattus norvegicus, po, Dose 10 mg/kg, read-out: Maximum hypotension (%)

T1 sequence (O35505 whole entry): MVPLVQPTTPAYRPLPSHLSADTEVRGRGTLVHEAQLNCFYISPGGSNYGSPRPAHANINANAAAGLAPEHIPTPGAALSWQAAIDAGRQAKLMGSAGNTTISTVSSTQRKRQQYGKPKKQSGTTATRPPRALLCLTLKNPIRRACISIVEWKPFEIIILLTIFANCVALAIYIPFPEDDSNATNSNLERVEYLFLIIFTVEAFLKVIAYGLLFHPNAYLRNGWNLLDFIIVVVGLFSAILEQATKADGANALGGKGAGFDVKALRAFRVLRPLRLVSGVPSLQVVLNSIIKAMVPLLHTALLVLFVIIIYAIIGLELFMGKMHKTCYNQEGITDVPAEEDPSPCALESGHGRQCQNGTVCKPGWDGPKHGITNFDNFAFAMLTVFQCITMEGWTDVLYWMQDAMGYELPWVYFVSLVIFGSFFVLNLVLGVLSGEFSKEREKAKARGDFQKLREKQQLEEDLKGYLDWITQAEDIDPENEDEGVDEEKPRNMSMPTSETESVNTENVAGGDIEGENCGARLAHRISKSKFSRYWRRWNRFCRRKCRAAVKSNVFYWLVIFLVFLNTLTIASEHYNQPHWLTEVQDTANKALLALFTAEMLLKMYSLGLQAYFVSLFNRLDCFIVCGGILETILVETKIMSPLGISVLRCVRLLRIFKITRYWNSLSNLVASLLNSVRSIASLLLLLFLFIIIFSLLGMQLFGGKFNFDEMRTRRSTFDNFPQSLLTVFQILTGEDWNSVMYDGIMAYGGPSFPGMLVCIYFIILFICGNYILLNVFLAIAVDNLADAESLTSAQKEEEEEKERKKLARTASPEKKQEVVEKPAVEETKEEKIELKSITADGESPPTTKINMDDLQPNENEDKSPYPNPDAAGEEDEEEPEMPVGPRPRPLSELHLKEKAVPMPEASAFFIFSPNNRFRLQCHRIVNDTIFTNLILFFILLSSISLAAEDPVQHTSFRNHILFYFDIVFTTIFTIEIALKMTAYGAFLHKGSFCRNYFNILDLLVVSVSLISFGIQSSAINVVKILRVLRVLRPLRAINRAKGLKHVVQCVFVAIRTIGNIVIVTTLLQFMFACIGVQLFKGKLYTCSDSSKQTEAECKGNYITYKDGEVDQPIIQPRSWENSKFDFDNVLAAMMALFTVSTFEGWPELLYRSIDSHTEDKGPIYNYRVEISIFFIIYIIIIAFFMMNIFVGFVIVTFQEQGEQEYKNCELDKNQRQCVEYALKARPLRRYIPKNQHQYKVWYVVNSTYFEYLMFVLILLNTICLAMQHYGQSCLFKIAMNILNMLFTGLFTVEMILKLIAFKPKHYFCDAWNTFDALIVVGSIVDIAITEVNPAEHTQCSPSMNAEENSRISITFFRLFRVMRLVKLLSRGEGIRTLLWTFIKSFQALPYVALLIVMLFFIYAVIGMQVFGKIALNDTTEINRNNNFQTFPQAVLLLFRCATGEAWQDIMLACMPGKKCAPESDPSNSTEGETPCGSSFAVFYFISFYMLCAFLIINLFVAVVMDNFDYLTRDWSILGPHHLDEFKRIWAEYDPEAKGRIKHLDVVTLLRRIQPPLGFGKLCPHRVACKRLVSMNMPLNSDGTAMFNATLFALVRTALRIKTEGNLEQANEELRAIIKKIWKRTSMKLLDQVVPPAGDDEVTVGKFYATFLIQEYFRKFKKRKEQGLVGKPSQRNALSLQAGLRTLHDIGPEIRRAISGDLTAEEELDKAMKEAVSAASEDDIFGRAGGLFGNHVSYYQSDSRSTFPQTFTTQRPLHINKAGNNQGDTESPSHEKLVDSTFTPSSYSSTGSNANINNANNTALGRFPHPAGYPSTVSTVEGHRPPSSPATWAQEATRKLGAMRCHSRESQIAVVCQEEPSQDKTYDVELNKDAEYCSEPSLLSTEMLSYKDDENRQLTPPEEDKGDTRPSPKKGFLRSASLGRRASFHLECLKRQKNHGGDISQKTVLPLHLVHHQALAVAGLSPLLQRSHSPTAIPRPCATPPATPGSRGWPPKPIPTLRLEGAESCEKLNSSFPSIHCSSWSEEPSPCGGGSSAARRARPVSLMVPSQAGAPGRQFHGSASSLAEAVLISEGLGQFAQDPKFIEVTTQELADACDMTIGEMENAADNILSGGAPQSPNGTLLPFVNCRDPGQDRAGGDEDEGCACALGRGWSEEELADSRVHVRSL

SMILES | inhibition at 0.01 µg/mL (calcium channel) [%] | Half-time of hypotension action ([1]; Dose 30 mg/kg) [h] | change in vivo at 30 mg/kg [1, 2] [%] | further results
COc1ccc([C@@H]2Sc3cc(OCc4ccccc4)ccc3N(CCN(C)C)C(=O)[C@@H]2OC(C)=O)cc1 (racemic) [(±)-8-BzO-diltiazem, cis-3-acetoxy-8-benzyloxy-2,3-dihydro-5-(2-dimethylaminoethyl)-2-(4-methoxyphenyl)-1,5-benzothiazepin-4(5H)-one, reference compound] | 55 | 7.7 | -19 | 
COc1ccc([C@@H]2Sc3cc(Oc4ccccc4)ccc3N(CCN(C)C)C(=O)[C@@H]2OC(C)=O)cc1 (racemic) [Example 2, (±)-Cis-3-acetoxy-5-(2-dimethylaminoethyl)-2,3-dihydro-2-(4-methoxyphenyl)-8-phenoxy-1,5-benzothiazepin-4(5H)-one] | 58 | 13.9 | -34 | 
COc1ccc([C@@H]2Sc3cc(Oc4ccccc4)ccc3N(CCN(C)C)C(=O)[C@@H]2OC(C)=O)cc1F (racemic) [Example 4, (±)-Cis-3-acetoxy-5-(2-dimethylaminoethyl)-2-(3-fluoro-4-methoxyphenyl)-2,3-dihydro-8-phenoxy-1,5-benzothiazepin-4(5H)-one] | 84 | 16.0 | -36 | 
COc1ccc([C@@H]2Sc3cc(Oc4ccc(F)cc4)ccc3N(CCN(C)C)C(=O)[C@@H]2OC(C)=O)cc1 (racemic) [Example 22, (±)-cis-3-Acetoxy-5-(2-dimethylaminoethyl)-8-(4-fluoro-phenoxy)-2,3-dihydro-2-(4-methoxyphenyl)-1,5-benzothiazepin-4(5H)-one] | 52 |  |  | 
COc1ccc([C@@H]2Sc3cc(Oc4ccc(F)cc4)ccc3N(CCN(C)C)C(=O)[C@@H]2OC(C)=O)cc1F (racemic) [Example 24, (±)-cis-3-Acetoxy-5-(2-dimethylaminoethyl)-2-(3-fluoro-4-methoxyphenyl)-8-(4-fluorophenoxy)-2,3-dihydro-1,5-benzothiazepin-4(5H)-one] | 93 |  |  | 
COc1ccc([C@@H]2Sc3cc(Cl)ccc3N(CCN(C)C)C(=O)[C@@H]2OC(C)=O)cc1 (relative stereo) [(±)-8-Cl-diltiazem, cis-3-acetoxy-8-chloro-2,3-dihydro-5-(2-dimethylaminoethyl)-2-(4-methoxyphenyl)-1,5-benzothiazepin-4(5E,uns/H/ )-one, reference compound] | 56 | 6.1 | -32 | 
COc1ccc([C@@H]2Sc3cc(OC)ccc3N(CCN(C)C)C(=O)[C@@H]2OC(C)=O)cc1 (relative stereo) [(±)-8-MeO-diltiazem, cis-3-acetoxy-8-methoxy-2,3-dihydro-5-(2-dimethylaminoethyl)-2-(4-methoxyphenyl)-1,5-benzotbiazepin-4(5E,uns/H/ )-one, reference compound] | 67 | 5.8 | -35 | 
COc1ccc([C@@H]2Sc3ccccc3N(CCN(C)C)C(=O)[C@@H]2OC(C)=O)cc1 (relative stereo) [(±)-diltiazem, reference compound] | 11 | 3.8 | -17 | 
CC(=O)O[C@H]1C(=O)N(CCN(C)C)c2ccc(Oc3ccccc3)cc2S[C@H]1c1ccc2c(c1)OCO2 (relative stereo) [Example 6, (±)-Cis-3-acetoxy-5-(2-dimethylaminoethyl)-2,3-dihydro-2-(3,4-methylenedioxyphenyl)-8-phenoxy-1,5-benzothiazepin-(5H)-one] | 53 |  |  | 
COc1ccc(Oc2ccc3c(c2)S[C@@H](c2ccc(OC)cc2)[C@@H](OC(C)=O)C(=O)N3CCN(C)C)cc1 (relative stereo) [Example 28, (±)-cis-3-Acetoxy-5-(2-dimethylaminoethyl)-2,3-dihydro-8-(4-methoxyphenoxy)-2-(4-methoxyphenyl)-1,5-benzothlazepin-4-(5H)-one] | 59 |  |  | 
COc1ccc([C@@H]2Sc3cc(Oc4ccc(Cl)cc4)ccc3N(CCN(C)C)C(=O)[C@@H]2OC(C)=O)cc1 (relative stereo) [Example 30, (±)-cis-3-Acetoxy-8-(4-chlorophenoxy)-2,3-dihydro-5-(2-dimethylaminoethyl)-2-(4-methoxyphenyl)-1,5-benzothiazepin-4-(5H)-one] | 56 |  |  | 
COc1ccc([C@@H]2Sc3ccccc3N(CCN(C)C)C(=O)[C@@H]2OC(C)=O)cc1 [(+)-diltiazem, (2, 3S)-cis-3-acetoxy-2,3-dihydro-5-(2-dimethylaminoethyl)-2-(4-methoxyphenyl)-1,5-benzothiazepin-4(5H)-one, reference compound] | 20 |  |  | Half-time of hypotension action ([1]; Dose 10 mg/kg): 3.3 h; change in vivo at 10 mg/kg [1, 3]: -15%
COc1ccc([C@@H]2Sc3cc(Oc4ccccc4)ccc3N(CCN(C)C)C(=O)[C@@H]2OC(C)=O)cc1 [Example 12, (2S, 3S)-3-Acetoxy-5-(2-dimethylaminoethyl)-2,3-dihydro-2-(4-methoxyphenyl1}-8-phenoxy-1,5-benzothiazepin-4(5H)-one] | 86 |  |  | Half-time of hypotension action ([1]; Dose 5 mg/kg): 11.8 h; change in vivo at 5 mg/kg ([1]; Rattus norvegicus, po, Dose 5 mg/kg, read-out: Maximum hypotension (%)): -38%
COc1ccc([C@@H]2Sc3cc(Oc4ccc(F)cc4)ccc3N(CCN(C)C)C(=O)[C@@H]2OC(C)=O)cc1 [Example 14, (2S, 3S)-3-Acetoxy-5-(2-dimethylaminoethyl)-8-(4-fluoro-phenoxy)-2,3-dihydro-2-(4-methoxyphenyl)-1,5-benzothiazpin-4(5H)-one] | 94 |  |  | Half-time of hypotension action ([1]; Dose 10 mg/kg): 12.7 h; change in vivo at 10 mg/kg [1, 3]: -37%
COc1ccc([C@@H]2Sc3cc(Oc4ccccc4)ccc3N(CCN(C)C)C(=O)[C@@H]2OC(C)=O)cc1F [Example 16, (2S, 3S)-3-Acetoxy-5-(2-dimethylaminoethyl)-2-(3-fluoro-4-methoxyphenvl)-2,3-dihydro-8-phenoxy-1,5-benzothiazepin-4(5H)-one] | 80 |  |  | Half-time of hypotension action ([1]; Dose 3 mg/kg): 9.4 h; change in vivo at 3 mg/kg ([1]; Rattus norvegicus, po, Dose 3 mg/kg, read-out: Maximum hypotension (%)): -21%
COc1ccc([C@@H]2Sc3cc(Cc4ccccc4)ccc3N(CCN(C)C)C(=O)[C@@H]2OC(C)=O)cc1 [Example 18] | 77 |  |  | Half-time of hypotension action ([1]; Dose 10 mg/kg): 13.8 h; change in vivo at 10 mg/kg [1, 3]: -32%
COc1ccc([C@@H]2Sc3cc(Cc4cccs4)ccc3N(CCN(C)C)C(=O)[C@@H]2OC(C)=O)cc1 [Example 20, (2S, 3S)-3-Acetoxy-5-(2-dimethylaminoethyl)-2,3-dihydro-2-(4-Methoxyphenyl)-8-(2-thienylmethyl)-1,5-benzothiazepin-4(5H)-one] | 57 |  |  | Half-time of hypotension action ([1]; Dose 10 mg/kg): 8.5 h; change in vivo at 10 mg/kg [1, 3]: -24%
COc1ccc([C@@H]2Sc3cc(Oc4ccc5c(c4)OCO5)ccc3N(CCN(C)C)C(=O)[C@@H]2OC(C)=O)cc1 [Example 34, (2S, 3S)-3-Acetoxy-5-(2-dimethylaminoethyl)-2,3-dihydro-2-(4-methoxyphenyl)-8-(3,4-methylenedioxyphenoxy)-1,5-benzothiazepin-4(5H)-one] | 88 |  |  | 
